Experimental data from ChEMBL document CHEMBL3352338, “Development and biological evaluation of potent and selective c-KIT(D816V) inhibitors” (J Med Chem, 2014).

Tests used:
[1] = biological target: T1, Inhibitor of nuclear factor kappa-B kinase subunit alpha (Homo sapiens) (UniProt O15111); assay: Inhibition of IKKalpha (unknown origin) at 1 uM by KINOMEscanning assay relative to control; values are per cent of control
T1 sequence (whole entry): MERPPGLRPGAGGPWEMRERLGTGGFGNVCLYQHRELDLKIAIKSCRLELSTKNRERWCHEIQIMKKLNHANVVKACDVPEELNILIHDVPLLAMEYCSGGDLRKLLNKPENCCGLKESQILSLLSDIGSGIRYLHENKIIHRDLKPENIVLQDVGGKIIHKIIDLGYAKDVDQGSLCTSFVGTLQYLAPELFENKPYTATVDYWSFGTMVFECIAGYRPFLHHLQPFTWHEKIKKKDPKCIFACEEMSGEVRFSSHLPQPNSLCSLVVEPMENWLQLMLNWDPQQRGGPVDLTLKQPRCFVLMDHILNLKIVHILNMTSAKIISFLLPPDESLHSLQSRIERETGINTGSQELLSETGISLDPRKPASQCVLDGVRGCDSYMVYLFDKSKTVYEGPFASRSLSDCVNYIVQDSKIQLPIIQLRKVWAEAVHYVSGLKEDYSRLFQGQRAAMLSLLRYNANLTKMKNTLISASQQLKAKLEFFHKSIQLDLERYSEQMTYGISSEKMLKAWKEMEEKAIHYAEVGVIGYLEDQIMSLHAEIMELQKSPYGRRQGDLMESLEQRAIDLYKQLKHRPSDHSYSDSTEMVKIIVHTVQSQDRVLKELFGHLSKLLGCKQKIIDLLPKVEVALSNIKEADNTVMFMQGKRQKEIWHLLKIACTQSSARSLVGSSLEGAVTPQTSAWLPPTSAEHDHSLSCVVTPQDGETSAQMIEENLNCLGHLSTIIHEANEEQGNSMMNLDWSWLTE

[2] = test system: Hepatocyte growth factor receptor (Homo sapiens), P08581 [M1250T]; assay: Inhibition of MET M1250T mutant (unknown origin) at 1 uM by KINOMEscanning assay relative to control; values are per cent of control
[3] = biological target: Glycogen synthase kinase-3 beta (Homo sapiens) (UniProt P49841); assay: Inhibition of GSK3beta (unknown origin) at 1 uM by KINOMEscanning assay relative to control; values are per cent of control
[4] = biological target: Mast/stem cell growth factor receptor Kit (Homo sapiens, UniProt P10721); assay: Inhibition of wild type c-KIT (unknown origin)
[5] = biological target: Mitogen-activated protein kinase 14 (Homo sapiens) (UniProt Q16539); assay: Inhibition of p38alpha (unknown origin) at 1 uM by KINOMEscanning assay relative to control; values are per cent of control
[6] = biological target: Receptor-type tyrosine-protein kinase FLT3 (Homo sapiens) (UniProt P36888); assay: Inhibition of FLT3 (unknown origin) at 1 uM by KINOMEscanning assay relative to control; values are per cent of control
[7] = biological target: Serine/threonine-protein kinase PAK 1 (Homo sapiens) (UniProt Q13153); assay: Inhibition of PAK1 (unknown origin) at 1 uM by KINOMEscanning assay relative to control; values are per cent of control
[8] = biological target: Dual specificity mitogen-activated protein kinase kinase 2 (Homo sapiens) (UniProt P36507); assay: Inhibition of MEK2 (unknown origin) at 1 uM by KINOMEscanning assay relative to control; values are per cent of control
[9] = biological target: Calcium/calmodulin-dependent protein kinase type 1 (Homo sapiens) (UniProt Q14012); assay: Inhibition of CAMK1 (unknown origin) at 1 uM by KINOMEscanning assay relative to control; values are per cent of control
[10] = biological target: Vascular endothelial growth factor receptor 2 (Homo sapiens) (UniProt P35968); assay: Inhibition of VEGFR2 (unknown origin) at 1 uM by KINOMEscanning assay relative to control; values are per cent of control
[11] = biological target: Tyrosine-protein kinase JAK2 (Homo sapiens) (UniProt O60674); assay: Inhibition of JAK2 (unknown origin) at 1 uM by KINOMEscanning assay relative to control; values are per cent of control
[12] = biological target: T2, 3-phosphoinositide-dependent protein kinase 1 (Homo sapiens) (UniProt O15530); assay: Inhibition of PDPK1 (unknown origin) at 1 uM by KINOMEscanning assay relative to control; values are per cent of control
T2 sequence (whole entry): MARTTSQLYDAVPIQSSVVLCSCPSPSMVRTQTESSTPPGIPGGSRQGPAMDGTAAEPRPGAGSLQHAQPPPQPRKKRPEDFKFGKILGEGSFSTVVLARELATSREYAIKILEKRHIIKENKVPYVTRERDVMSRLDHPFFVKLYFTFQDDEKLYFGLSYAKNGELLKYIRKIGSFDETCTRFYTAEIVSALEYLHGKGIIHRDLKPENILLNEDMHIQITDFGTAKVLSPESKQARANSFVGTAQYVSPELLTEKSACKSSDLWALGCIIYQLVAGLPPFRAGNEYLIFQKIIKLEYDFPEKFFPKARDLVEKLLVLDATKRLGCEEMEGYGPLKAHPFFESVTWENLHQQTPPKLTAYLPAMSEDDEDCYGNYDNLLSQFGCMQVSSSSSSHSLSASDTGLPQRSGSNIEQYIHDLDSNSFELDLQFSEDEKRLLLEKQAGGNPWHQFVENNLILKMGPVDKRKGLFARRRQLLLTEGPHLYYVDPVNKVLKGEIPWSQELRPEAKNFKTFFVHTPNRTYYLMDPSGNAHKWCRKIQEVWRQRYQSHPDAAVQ

[13] = biological target: T3, Serine/threonine-protein kinase 17A (Homo sapiens) (UniProt Q9UEE5); assay: Inhibition of DRAK1 (unknown origin) at 1 uM by KINOMEscanning assay relative to control; values are per cent of control
T3 sequence (whole entry): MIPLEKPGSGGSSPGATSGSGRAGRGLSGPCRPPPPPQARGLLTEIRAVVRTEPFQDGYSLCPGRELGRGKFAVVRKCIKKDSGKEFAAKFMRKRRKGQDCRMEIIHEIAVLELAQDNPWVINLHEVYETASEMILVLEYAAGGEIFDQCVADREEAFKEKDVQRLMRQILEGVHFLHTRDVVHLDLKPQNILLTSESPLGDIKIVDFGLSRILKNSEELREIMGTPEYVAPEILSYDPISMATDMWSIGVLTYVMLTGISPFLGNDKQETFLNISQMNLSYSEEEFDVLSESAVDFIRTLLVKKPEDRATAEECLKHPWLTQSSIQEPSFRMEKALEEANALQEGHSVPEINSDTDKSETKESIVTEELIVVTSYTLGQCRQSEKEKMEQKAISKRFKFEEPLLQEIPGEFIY

Sequence of Hepatocyte growth factor receptor (Homo sapiens), P08581 [M1250T] (P08581 whole entry M1250T): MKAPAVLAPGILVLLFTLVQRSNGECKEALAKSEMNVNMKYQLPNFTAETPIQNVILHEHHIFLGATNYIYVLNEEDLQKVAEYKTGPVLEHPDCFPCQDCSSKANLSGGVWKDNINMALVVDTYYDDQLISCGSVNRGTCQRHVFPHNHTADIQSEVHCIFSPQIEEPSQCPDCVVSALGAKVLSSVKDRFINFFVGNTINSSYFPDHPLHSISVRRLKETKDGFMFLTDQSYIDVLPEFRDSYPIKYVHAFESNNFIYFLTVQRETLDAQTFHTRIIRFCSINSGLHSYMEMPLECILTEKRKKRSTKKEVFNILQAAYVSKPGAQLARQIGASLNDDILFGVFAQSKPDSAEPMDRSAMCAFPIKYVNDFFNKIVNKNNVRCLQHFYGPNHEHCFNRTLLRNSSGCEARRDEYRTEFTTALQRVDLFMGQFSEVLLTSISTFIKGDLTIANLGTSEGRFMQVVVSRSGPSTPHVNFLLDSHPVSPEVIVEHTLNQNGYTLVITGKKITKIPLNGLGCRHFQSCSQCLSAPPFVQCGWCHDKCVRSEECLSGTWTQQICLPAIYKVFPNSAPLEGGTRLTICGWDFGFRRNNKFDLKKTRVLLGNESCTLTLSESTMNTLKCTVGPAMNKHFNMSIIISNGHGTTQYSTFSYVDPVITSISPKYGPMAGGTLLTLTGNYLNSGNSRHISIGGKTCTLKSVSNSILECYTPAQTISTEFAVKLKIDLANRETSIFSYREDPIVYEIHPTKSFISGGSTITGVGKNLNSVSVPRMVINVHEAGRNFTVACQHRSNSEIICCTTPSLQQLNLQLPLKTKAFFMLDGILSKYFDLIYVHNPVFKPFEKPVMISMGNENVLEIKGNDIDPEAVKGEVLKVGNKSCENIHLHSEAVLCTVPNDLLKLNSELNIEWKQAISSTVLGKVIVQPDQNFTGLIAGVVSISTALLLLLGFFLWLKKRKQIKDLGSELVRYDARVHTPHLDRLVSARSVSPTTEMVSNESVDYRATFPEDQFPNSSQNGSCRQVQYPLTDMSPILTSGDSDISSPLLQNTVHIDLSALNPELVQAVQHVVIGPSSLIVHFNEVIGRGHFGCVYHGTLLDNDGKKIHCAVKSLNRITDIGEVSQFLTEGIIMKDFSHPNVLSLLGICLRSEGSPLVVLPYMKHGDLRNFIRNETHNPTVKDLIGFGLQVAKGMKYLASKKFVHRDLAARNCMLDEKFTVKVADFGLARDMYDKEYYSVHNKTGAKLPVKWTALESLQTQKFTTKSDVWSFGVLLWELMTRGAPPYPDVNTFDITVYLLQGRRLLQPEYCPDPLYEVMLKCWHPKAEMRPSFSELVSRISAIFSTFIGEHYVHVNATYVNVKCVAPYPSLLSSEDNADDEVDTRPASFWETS
Sequence of Glycogen synthase kinase-3 beta (Homo sapiens) (P49841 whole entry, looked up): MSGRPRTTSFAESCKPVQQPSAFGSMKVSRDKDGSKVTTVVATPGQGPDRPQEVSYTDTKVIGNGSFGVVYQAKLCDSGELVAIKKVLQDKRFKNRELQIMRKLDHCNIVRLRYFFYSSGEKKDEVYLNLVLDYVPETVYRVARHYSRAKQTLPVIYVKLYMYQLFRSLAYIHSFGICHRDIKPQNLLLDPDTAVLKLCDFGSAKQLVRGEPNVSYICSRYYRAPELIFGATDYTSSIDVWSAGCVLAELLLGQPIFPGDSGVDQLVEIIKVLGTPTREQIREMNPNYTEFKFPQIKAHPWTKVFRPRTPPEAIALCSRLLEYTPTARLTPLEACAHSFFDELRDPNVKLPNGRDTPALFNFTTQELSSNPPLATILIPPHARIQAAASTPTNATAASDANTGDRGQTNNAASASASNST
Sequence of Calcium/calmodulin-dependent protein kinase type 1 (Homo sapiens) (Q14012 whole entry, looked up): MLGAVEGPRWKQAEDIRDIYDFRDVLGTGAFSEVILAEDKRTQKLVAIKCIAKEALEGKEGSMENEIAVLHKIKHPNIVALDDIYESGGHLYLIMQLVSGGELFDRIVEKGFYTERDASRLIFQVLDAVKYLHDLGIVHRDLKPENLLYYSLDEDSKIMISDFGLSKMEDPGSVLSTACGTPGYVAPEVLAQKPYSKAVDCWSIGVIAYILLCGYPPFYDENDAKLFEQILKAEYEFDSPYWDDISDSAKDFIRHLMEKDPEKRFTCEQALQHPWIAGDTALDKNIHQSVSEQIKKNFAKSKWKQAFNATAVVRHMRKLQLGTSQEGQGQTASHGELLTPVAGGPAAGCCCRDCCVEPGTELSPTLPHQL
Sequence of Dual specificity mitogen-activated protein kinase kinase 2 (Homo sapiens) (P36507 whole entry): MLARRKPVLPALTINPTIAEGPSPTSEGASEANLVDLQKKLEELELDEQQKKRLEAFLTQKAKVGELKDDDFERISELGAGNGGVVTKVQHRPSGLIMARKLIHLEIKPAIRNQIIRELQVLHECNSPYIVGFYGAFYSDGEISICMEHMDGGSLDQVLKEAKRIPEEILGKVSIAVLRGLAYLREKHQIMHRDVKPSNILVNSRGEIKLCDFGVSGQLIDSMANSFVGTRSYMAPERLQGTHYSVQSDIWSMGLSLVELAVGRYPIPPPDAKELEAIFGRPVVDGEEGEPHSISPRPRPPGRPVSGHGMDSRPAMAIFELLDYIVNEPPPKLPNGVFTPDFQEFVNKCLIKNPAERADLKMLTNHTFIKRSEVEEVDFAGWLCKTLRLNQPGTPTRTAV
Sequence of Vascular endothelial growth factor receptor 2 (Homo sapiens) (P35968 whole entry): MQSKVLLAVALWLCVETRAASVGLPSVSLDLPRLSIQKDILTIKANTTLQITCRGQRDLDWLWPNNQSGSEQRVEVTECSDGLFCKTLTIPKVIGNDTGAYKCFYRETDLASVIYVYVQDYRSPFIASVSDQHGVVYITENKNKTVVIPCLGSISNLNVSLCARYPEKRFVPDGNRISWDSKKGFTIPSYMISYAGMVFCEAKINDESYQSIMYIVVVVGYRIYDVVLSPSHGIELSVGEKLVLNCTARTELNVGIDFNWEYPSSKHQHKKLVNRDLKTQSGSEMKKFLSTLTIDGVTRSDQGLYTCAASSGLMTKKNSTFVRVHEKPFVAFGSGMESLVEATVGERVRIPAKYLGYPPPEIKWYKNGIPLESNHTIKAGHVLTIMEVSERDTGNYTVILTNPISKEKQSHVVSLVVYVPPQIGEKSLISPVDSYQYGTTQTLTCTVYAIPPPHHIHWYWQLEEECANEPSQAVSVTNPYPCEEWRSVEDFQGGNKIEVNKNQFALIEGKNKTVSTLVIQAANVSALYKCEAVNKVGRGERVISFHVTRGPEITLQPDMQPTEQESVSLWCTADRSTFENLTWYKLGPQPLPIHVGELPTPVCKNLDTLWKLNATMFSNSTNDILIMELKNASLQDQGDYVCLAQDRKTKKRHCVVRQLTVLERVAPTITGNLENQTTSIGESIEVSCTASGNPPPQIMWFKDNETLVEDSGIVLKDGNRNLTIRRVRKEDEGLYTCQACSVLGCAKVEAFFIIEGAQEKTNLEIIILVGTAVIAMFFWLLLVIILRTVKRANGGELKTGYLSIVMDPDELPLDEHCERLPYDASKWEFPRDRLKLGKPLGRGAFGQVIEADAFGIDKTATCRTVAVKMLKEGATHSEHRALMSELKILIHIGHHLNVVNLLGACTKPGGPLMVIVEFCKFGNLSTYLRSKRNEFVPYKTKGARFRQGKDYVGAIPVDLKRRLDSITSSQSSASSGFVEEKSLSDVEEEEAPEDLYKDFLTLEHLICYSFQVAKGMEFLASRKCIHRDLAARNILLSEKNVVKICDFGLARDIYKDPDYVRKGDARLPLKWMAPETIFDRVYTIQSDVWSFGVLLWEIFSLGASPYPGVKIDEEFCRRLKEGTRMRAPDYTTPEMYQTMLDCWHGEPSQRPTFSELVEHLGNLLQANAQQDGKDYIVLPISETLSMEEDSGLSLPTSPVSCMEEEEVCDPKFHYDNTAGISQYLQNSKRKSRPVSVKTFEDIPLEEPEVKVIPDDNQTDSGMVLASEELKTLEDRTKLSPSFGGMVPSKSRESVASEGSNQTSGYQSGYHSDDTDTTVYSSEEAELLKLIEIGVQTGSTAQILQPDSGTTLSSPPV
Sequence of Mitogen-activated protein kinase 14 (Homo sapiens) (Q16539 whole entry): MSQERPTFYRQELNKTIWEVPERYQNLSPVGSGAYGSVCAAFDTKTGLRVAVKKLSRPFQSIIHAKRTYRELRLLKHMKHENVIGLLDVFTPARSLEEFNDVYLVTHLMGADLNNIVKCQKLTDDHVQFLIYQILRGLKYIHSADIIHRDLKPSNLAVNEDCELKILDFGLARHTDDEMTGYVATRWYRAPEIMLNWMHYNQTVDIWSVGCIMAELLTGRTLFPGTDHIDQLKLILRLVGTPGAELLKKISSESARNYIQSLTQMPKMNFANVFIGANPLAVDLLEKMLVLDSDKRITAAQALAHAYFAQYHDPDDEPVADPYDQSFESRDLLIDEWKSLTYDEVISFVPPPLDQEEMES
Sequence of Serine/threonine-protein kinase PAK 1 (Homo sapiens) (Q13153 whole entry): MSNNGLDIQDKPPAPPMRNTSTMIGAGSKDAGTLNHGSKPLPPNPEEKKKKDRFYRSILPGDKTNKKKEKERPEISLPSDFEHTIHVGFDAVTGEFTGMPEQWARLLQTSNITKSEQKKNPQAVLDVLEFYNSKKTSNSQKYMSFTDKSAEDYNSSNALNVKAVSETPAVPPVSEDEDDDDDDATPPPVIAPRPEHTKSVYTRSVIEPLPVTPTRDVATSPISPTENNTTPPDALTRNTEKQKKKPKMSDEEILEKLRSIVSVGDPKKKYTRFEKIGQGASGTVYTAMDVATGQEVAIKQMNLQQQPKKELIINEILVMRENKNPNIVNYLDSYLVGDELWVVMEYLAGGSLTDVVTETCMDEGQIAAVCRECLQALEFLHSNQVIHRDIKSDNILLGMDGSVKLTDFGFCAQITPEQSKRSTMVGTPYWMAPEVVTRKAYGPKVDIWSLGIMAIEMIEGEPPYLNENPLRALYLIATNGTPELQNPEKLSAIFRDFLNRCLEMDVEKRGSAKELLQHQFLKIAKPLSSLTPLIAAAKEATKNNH

Row | SMILES | residual activity [1] [%] | residual activity [2] [%] | residual activity [3] [%] | IC50 [4] [nM] | residual activity [5] [%] | residual activity [6] [%] | residual activity [7] [%] | residual activity [8] [%] | residual activity [9] [%] | residual activity [10] [%] | residual activity [11] [%] | residual activity [12] [%] | residual activity [13] [%]
1 | COc1ccc(-c2c[nH]c3ncc(-c4ccc(C(=O)N5CCOCC5)c(N)c4)cc23)cc1OC | 2.2 | 53 | 63 | 9140 | 94 | 7 | 87 | 72 | 62 | 79 | 3.2 | 31 | 0.25
2 | COc1ccc(-c2cnc3[nH]cc(-c4ccc(OC)c(OC)c4)c3c2)cc1N | 26 | 51 | 87 | > 10000 | 93 | 18 | 88 | 90 | 71 | 79 | 46 | 91 | 2.4

The next lines start with the values.

Row | residual activity [1] [%] | residual activity [2] [%] | residual activity [3] [%] | IC50 [4] [nM] | residual activity [5] [%] | residual activity [6] [%] | residual activity [7] [%] | residual activity [8] [%] | residual activity [9] [%] | residual activity [10] [%] | residual activity [11] [%] | residual activity [12] [%] | residual activity [13] [%] | SMILES
3 | 10 | 35 | 94 | 142 | 96 | 2.2 | 85 | 92 | 63 | 96 | 49 | 65 | 0.2 | COc1ccc(-c2cnc3[nH]cc(-c4ccc(OC)c(OC)c4)c3c2)cc1OC
4 | 70 | 86 | 64 | 2750 | 100 | 1.6 | 83 | 93 | 61 | 97 | 48 | 76 | 0.95 | COc1ccc(-c2c[nH]c3ncc(-c4cc(OC)c(OC)c(OC)c4)cc23)cc1OC
5 | 46 | 80 | 64 | – | 100 | 25 | 89 | 74 | 53 | 96 | 78 | 100 | 86 | COc1cc(-c2c[nH]c3ncc(-c4cccc(N)c4)cc23)cc(OC)c1OC
